Columns and labels:
[1] = HepAD38 cells cytotoxicity assay (CellTiter-Glo Luminescent Cell Viability Assay); format: cell-based; conditions: human, 7 days total treatment, read-out: Cell tox (EC50, ηM)
Protocol: (§1) Example 36 HepAD38 Cells—HBsAg ELISA and Cytotoxicity Assays
(§2) HepAD38 cells are maintained in collagen-coated flasks in cell culture medium (DMEM/F12 containing 10% fetal bovine serum (FBS), GlutaMax-1, penicillin/streptomycin, non-essential amino acids, Na pyruvate, 250 μg/mL geneticin, and 1 μg/mL doxycycline). Compound solutions are prepared in DMSO and compound are serially diluted for final concentrations of 4000, 1000, 250, 62.5, 15.6, 3.91, 0.977, 0.244, 0.061, and 0.015 ηM. The cells are then trypsinized and the cells are plate at 10,000 cells per well. Incubate plates are incubated at 37° C., 5% CO2 for 4 days. Media is replaced with new media with compound treatment. The plates are then incubated at 37° C., 5% CO2 for an additional 3 days for a total treatment time of 7 days. For antiviral response, HBsAg was measured using the HBsAg ELISA kit (International Immuno-diagnostics) with instructions provided. 100 uL of cell media samples was used for ELISA. The absorbance was read on the Spectramax® 384 plate reader (Molecular Devices) at 450 nm. For cell toxicity, the cells were used for CellTiter-Glo® Luminescent Cell Viability Assay reagent (Promega). The luminescence was read on Envision Multilabel Reader (Perkin Elmer). The data was analyzed compared to the DMSO control. % inhibition=(1−(unknown/high control))*100
(§3) The average % inhibition values from duplicate assay plates are then plotted in GraphPad Prism to determine one IC value: Four-parameter logistic curve with equation Y=Bottom+(Top-Bottom)/(1+10^((Log IC50−X)*HillSlope)) pIC50=[…]

[2] = system: HBs antigens (HBsAg); test: HepAD38 cells HBsAg ELISA; format: cell-based, Hepatitis B virus; conditions: read-out: HepAD38, HBsAg (EC50), 7 days total treatment, HBsAg ELISA of cell media
Protocol: as §1, §2, §3

Row | SMILES | EC50 at 7 days [1] [nM] | EC50 [2] [nM]
1 | COCCCOc1cc2c(nc1C1CC1)-c1cc(=O)c(C(=O)O)cn1C1C2CCC1(C)C (racemic) [Example 4, 2-Cyclopropyl-3-(3-methoxypropoxy)-7,7-dimethyl-11-oxo-4b,5,6,7,7a,11-hexahydrocyclopenta[f]pyrido[1,2-h][1,7]naphthyridine-10-carboxylic acid (racemic cis)] | > 4000 | < 1
2 | CC(C)(C)C1Cc2cc(OCC3CC3)c(Cl)nc2-c2cc(=O)c(C(=O)O)cn21 (racemic) [Example 30, 6-(tert-Butyl)-2-chloro-3-(cyclopropylmethoxy)-10-oxo-6,10-dihydro-5H-pyrido[1,2-h][1,7]naphthyridine-9-carboxylic acid] | > 4000 | 1 to 10
3 | COCCCOc1cc2c(nc1Cl)-c1cc(=O)c(C(=O)O)cn1C1C2CCC1(C)C (racemic) [Example 34, 2-Chloro-3-(3-methoxypropoxy)-7,7-dimethyl-11-oxo-4b,5,6,7,7a,11-hexahydrocyclopenta[f]pyrido[1,2-h][1,7]naphthyridine-10-carboxylic acid] | > 4000 | < 1
4 | COCCCOc1cc2c(nc1Cl)-c1cc(=O)c(C(=O)O)cn1[C@H]1[C@@H]2CCC1(C)C (single isomer, unassigned) [Example 1] | > 4000 | < 1
5 | COCCCOc1cc2c(nc1Cl)-c1cc(=O)c(C(=O)O)cn1[C@@H]1[C@H]2CCC1(C)C (single isomer, unassigned) [Example 2] | > 4000 | 10 to 100
6 | COCCCOc1cc2c(nc1C1CC1)-c1cc(=O)c(C(=O)O)cn1[C@@H]1C(C)(C)CCC21O (single isomer, unassigned) [Example 5] | > 4000 | 1 to 10
7 | CC(C)(C)C1Cc2cc(OCC3CC3)c(Cl)nc2-c2cc(=O)c(C(=O)O)cn21 (single isomer, unassigned; isomer 2) [Example 30-B, 6-(tert-Butyl)-2-chloro-3-(cyclopropylmethoxy)-10-oxo-6,10-dihydro-5H-pyrido[1,2-h][1,7]naphthyridine-9-carboxylic acid (isomer 2)] | > 4000 | > 100
8 | CC(C)C1(C)Cc2cc(OCC3CC3)c(Cl)nc2-c2cc(=O)c(C(=O)O)cn21 (single isomer, unassigned; isomer-1) [Example 26, (2-Chloro-3-(cyclopropylmethoxy)-6-isopropyl-6-methyl-10-oxo-5,10-dihydro-6H-pyrido[1,2-h][1,7]naphthyridine-9-carboxylic acid-Isomer-1] | > 4000 | 1 to 10
9 | COCCCOc1cc2c(nc1C1CC1)-c1cc(=O)c(C(=O)O)cn1C(C)(C(C)C)C2 (single isomer, unassigned; isomer-1) [Example 28, 2-Cyclopropyl-6-isopropyl-3-(3-methoxypropoxy)-6-methyl-10-oxo-5,10-dihydro-6H-pyrido[1,2-h][1,7]naphthyridine-9-carboxylic acid-Isomer-1] | > 4000 | < 1
10 | COCCCOc1cc2c(nc1C1CC1)-c1cc(=O)c(C(=O)O)cn1[C@H]1[C@@H]2CCC1(C)C [Example 3, (4bR,7aS)-2-Cyclopropyl-3-(3-methoxypropoxy)-7,7-dimethyl-11-oxo-4b,5,6,7,7a,11-hexahydrocyclopenta[f]pyrido[1,2-h][1,7]naphthyridine-10-carboxylic acid] | > 4000 | < 1
11 | COCCCOc1cc2c(nc1Cl)-c1cc(=O)c(C(=O)O)cn1[C@@H]1C(C)(C)CCC21O (stereo partly drawn) [Example 6, (7aR)-2-Chloro-4b-hydroxy-3-(3-methoxypropoxy)-7,7-dimethyl-11-oxo-4b,5,6,7,7a,11-hexahydrocyclopenta[f]pyrido[1,2-h][1,7]naphthyridine-10-carboxylic acid] | > 4000 | 10 to 100
12 | COCCCOc1cc2c(nc1Cl)-c1cc(=O)c(C(=O)O)cn1[C@@H]1C(C)(C)CCC21OC (stereo partly drawn) [Example 7, (7aR)-2-Chloro-4b-methoxy-3-(3-methoxypropoxy)-7,7-dimethyl-11-oxo-4b,5,6,7,7a,11-hexahydrocyclopenta[f]pyrido[1,2-h][1,7]naphthyridine-10-carboxylic acid] | > 4000 | 10 to 100
13 | COCCCOc1cc2c(nc1O)-c1cc(=O)c(C(=O)O)cn1[C@H]1[C@@H]2CCC1(C)C [Example 8, (4bR,7aS)-2-Hydroxy-3-(3-methoxypropoxy)-7,7-dimethyl-11-oxo-4b,5,6,7,7a,11-hexahydrocyclopenta[f]pyrido[1,2-h][1,7]naphthyridine-10-carboxylic acid] | > 4000 | > 100
14 | CC1(C)CC[C@@H]2c3cc(O)c(Cl)nc3-c3cc(=O)c(C(=O)O)cn3[C@@H]21 [Example 9, (4bR,7aS)-2-Chloro-3-hydroxy-7,7-dimethyl-11-oxo-4b,5,6,7,7a,11-hexahydrocyclopenta[f]pyrido[1,2-h][1,7]naphthyridine-10-carboxylic acid] | > 4000 | > 100
15 | COCCCOc1cc2c(nc1Cl)-c1cc(=O)c(C(=O)O)cn1C(C(C)(C)CO)C2 (stereo not shown) [Example 10, 2-Chloro-6-(1-hydroxy-2-methylpropan-2-yl)-3-(3-methoxypropoxy)-10-oxo-6,10-dihydro-5H-pyrido[1,2-h][1,7]naphthyridine-9-carboxylic acid] | > 4000 | 1 to 10
16 | COCCCOc1cc2c(nc1Cl)-c1cc(=O)c(C(=O)O)cn1[C@H](C(C)(C)C)C2 [Example 11, (S)-6-(tert-Butyl)-2-chloro-3-(3-methoxypropoxy)-10-oxo-6,10-dihydro-5H-pyrido[1,2-h][1,7]naphthyridine-9-carboxylic acid] | > 4000 | < 1
17 | Cc1nc2c(cc1OCC1CC1)C[C@@H](C(C)(C)C)n1cc(C(=O)O)c(=O)cc1-2 [Example 12, (S)-6-(tert-Butyl)-3-(cyclopropylmethoxy)-2-methyl-10-oxo-6,10-dihydro-5H-pyrido[1,2-h][1,7]naphthyridine-9-carboxylic acid] | > 4000 | < 1
18 | COCCCOc1cc2c(nc1C)-c1cc(=O)c(C(=O)O)cn1[C@H](C(C)(C)C)C2 [Example 13, (S)-6-(tert-Butyl)-3-(3-methoxypropoxy)-2-methyl-10-oxo-6,10-dihydro-5H-pyrido[1,2-h][1,7]naphthyridine-9-carboxylic acid] | > 4000 | < 1
19 | CC(C)(C)[C@@H]1Cc2cc(OCC3CC3)c(C3CC3)nc2-c2cc(=O)c(C(=O)O)cn21 [Example 14, (S)-6-(tert-Butyl)-2-cyclopropyl-3-(cyclopropylmethoxy)-10-oxo-6,10-dihydro-5H-pyrido[1,2-h][1,7]naphthyridine-9-carboxylic acid] | > 4000 | < 1
20 | COCCCOc1cc2c(nc1C1CC1)-c1cc(=O)c(C(=O)O)cn1[C@H](C(C)(C)C)C2 [Example 15, (S)-6-(tert-Butyl)-2-cyclopropyl-3-(3-methoxypropoxy)-10-oxo-6,10-dihydro-5H-pyrido[1,2-h][1,7]naphthyridine-9-carboxylic acid] | > 4000 | < 1
